Earlier results as cited in patent publication US11433096B2, “Ophthalmic formulation and methods of use” (priority 2020, dated 2022).

Tests used:
opacities = conditions: in vivo
[1] = tested on: diabetes-induced cataract; conditions: diabetic rats

SMILES | opacities progression and opacity score (opacities) | cross-linked glycation, expression of the receptor of glycated products and oxidative stress indicators in the eye lens ([1]; supplemental zinc) | progression and maturation of diabetes-induced cataract ([1]; supplemental zinc) | reduced content of total and imbalanced proportion of soluble proteins in the lens ([1]; supplemental zinc) | concentration of heat shock protein in the eye lens, specifically α-crystallin ([1]; zinc supplementation) | elevated activity and expression of polyol pathway enzymes and molecules in the lens ([1]; zinc supplementation)
O=S(=O)([O-])[O-].[Zn+2] [Zinc Sulfate] | retard opacities progression and lowering the opacity score |  |  |  |  | 
[Zn] [zinc] |  | alleviated | alleviated | effective in preventing | induced | counteracted
